Experiments:
Assay type in all cases: cell-based, loblolly pine
[1] = test system: cell line M; assay: Effect of maltose on embryo production in liquid EDM, cell line M; conditions: highest (60 g/L) concentration of maltose
Method: (§1) Suspension cultures of the following four loblolly pine genotypes, I, B, M, and N, were tested. Each cell line or genotype was initiated from an individual immature seed explant derived from a control pollinated cross of select parent trees of loblolly pine. Five variations in the Liquid EDM listed in Table 1 were tested for development of loblolly pine somatic embryos in liquid. The five treatments were coded 1, 2, 3, 4 and 5 according to the concentration of maltose in the liquid medium, 0, 10, 20, 40 and 60 g/l, respectively. The proliferating embryogenic suspension cultures were poured in the side arm of the flask for 30 minutes to measure the settled cell volume (SCV) as described in example 2. A sub-sample of 12 ml of proliferating liquid suspension was removed for baseline development plating on five plates of MSG gelled embryo development medium for comparative purposes. The SCV measurement was recorded and the proliferating liquid suspensions were distributed among the treatments listed above. […] The SCV measurements were recorded and the flasks were placed on the shaker in the dark, 24° C. growth chamber and monitored on a weekly basis for five weeks as described below. the liquid embryo development suspensions were poured into the sidearm and allowed to settle in the sidearm for 30 minutes and the SCV measured and recorded. […]

[2] = test system: pine somatic embryos, genotype B; assay: Germination of embryos developed at varying maltose concentration, genotype B
Method: (§2) In this particular experiment, after the 3 week conditioning treatment, the embryos on the membrane were placed on modMS germination medium in a lighted culture room at 24° C. After 3 to 5 days the embryos were individually removed from the membrane and transferred directly to the surface of modMS germination medium and cultured for an additional 2 weeks in a lighted growth room at 24° C. Embryo germination, which in this particular instance was estimated by identifying the emergence of a root from the embryo that was at least 1 cm long during this 2 week time period. Twenty-nine percent of the embryos harvested from liquid EDM germinated. Embryos were harvested and prepared for germination using two conditioning treatments: (1) exposure to high relative humidity for 3 weeks at 24° C. […] Embryos were then germinated as previously described in Example 5.

[3] = test system: cell line N; assay: Effect of maltose on embryo production in liquid EDM, cell line N; conditions: maltose 0 to 60 g/l
Method: as §1

[4] = test system: pine somatic embryos, genotype I; assay: Germination of embryos developed at varying maltose concentration, genotype I
Method: as §2

[5] = test system: cell line I; assay: Effect of maltose on embryo production in liquid EDM, cell line I; conditions: for Total Avg. Potential Embryos: 30 ml
Method: (§3) Suspension cultures of the following four loblolly pine genotypes, I, B, M, and N, were tested. Each cell line or genotype was initiated from an individual immature seed explant derived from a control pollinated cross of select parent trees of loblolly pine. Five variations in the Liquid EDM listed in Table 1 were tested for development of loblolly pine somatic embryos in liquid. The five treatments were coded 1, 2, 3, 4 and 5 according to the concentration of maltose in the liquid medium, 0, 10, 20, 40 and 60 g/l, respectively. The proliferating embryogenic suspension cultures were poured in the side arm of the flask for 30 minutes to measure the settled cell volume (SCV) as described in example 2. A sub-sample of 12 ml of proliferating liquid suspension was removed for baseline development plating on five plates of MSG gelled embryo development medium for comparative purposes. The SCV measurement was recorded and the proliferating liquid suspensions were distributed among the treatments listed above. Each treatment flask was initiated by placing 15 milliliters of 100% SCV onto a raft placed on a Buchner funnel and the excess liquid was removed through gentle vacuum aspiration. The tissues were then re-suspended into a 250 ml sidearm flask with 30 milliliters of Liquid Embryo Development Media with various maltose concentrations (from 0 to 60 g/l). Once the cultures were re-suspended in liquid EDM the suspensions were poured in the sidearm to settle in the sidearm for thirty minutes to measure the SCV. Each treatment had three replicate flasks. The SCV measurements were recorded and the flasks were placed on the shaker in the dark, 24° C. growth chamber and monitored on a weekly basis for five weeks as described below. the liquid embryo development suspensions were poured into the sidearm and allowed to settle in the sidearm for 30 minutes and the SCV measured and recorded. Each flask was sub-cultured as needed by adding liquid EDM to maintain the suspension density at 50%. This sequence of events was repeated at week two and week three. no media manipulation. The cultures were observed and placed back on the shaker. At week five the embryos were harvested as described in example 6 with the exception of using a 560 μm mesh to wash embryos. Half of the embryos were conditioned as described in example 6 and half were conditioned by the method described in U.S. Application Ser. No. 60/675, 949 simply for comparative purposes.

[6] = test system: cell line B; assay: Effect of maltose on embryo production in liquid EDM, cell line B; conditions: for Total Avg. Potential Embryos: 30 ml
Method: as §3

[7] = Cond 1: 3 wk HRH, maltose conc. 1%
[8] = Cond 1: 3 wk HRH, maltose conc. 2%
[9] = Cond 1: 3 wk HRH, maltose conc. 4%
[10] = Cond 1: 3 wk HRH, maltose conc. 6%
[11] = Cond 2: 4 wk cold & 3 wk HRH, maltose conc. 1%
[12] = Cond 2: 4 wk cold & 3 wk HRH, maltose conc. 2%
[13] = Cond 2: 4 wk cold & 3 wk HRH, maltose conc. 4%
[14] = Cond 2: 4 wk cold & 3 wk HRH, maltose conc. 6%
[15] = cell line I, maltose 10 g/l, week 5
[16] = cell line I, maltose 20 g/l, week 5
[17] = cell line I, maltose 40 g/l, week 5
[18] = cell line I, maltose 60 g/l, week 5
[19] = cell line B, maltose 10 g/l, week 5
[20] = cell line B, maltose 20 g/l, week 5
[21] = cell line B, maltose 40 g/l, week 5
[22] = cell line B, maltose 60 g/l, week 5

## OC[C@H]1O[C@H](O[C@H]2[C@H](O)[C@@H](O)C(O)O[C@@H]2CO)[C@H](O)[C@@H](O)[C@@H]1O (mixture of isomers) [maltose]
[1]
  response to increasing maltose: producing embryos that had not fully development
[2]; [7]
  Germination: 9%
[2]; [8]
  Germination: 8%
[2]; [9]
  Germination: 8%
[2]; [10]
  Germination: 41%
[2]; [11]
  Germination: 5%
[2]; [12]
  Germination: 3%
[2]; [13]
  Germination: 24%
[2]; [14]
  Germination: 29%
[3]
  response to maltose treatments: did not respond
[4]; [7]
  Germination: 37%
[4]; [8]
  Germination: 40%
[4]; [9]
  Germination: 33%
[4]; [10]
  Germination: 19%
[4]; [11]
  Germination: 21%
[4]; [12]
  Germination: 55%
[4]; [13]
  Germination: 48%
[4]; [14]
  Germination: 27%
[5]; cell line I, all liquid EDM treatments that contained maltose (10 to 60 g/l)
  production of fully developed embryos: Fully developed embryos were produced
[5]; cell line I, maltose 10 g/l
  Avg. Embryos: 206 per g tissue
  Total Avg. Potential Embryos: 464 per flask
[5]; [15]
  Avg. Embryos: 16 per ml
  Avg. ± st. dev. Embryos harvested: 232 ± 14 per 15 ml
[5]; cell line I, maltose 20 g/l
  Avg. Embryos: 216 per g tissue
  Total Avg. Potential Embryos: 486 per flask
[5]; [16]
  Avg. Embryos: 14 per ml
  Avg. ± st. dev. Embryos harvested: 243 ± 60 per 15 ml
[5]; cell line I, maltose 40 g/l
  Avg. Embryos: 237 per g tissue
  Total Avg. Potential Embryos: 526 per flask
[5]; [17]
  Avg. Embryos: 16 per ml
  Avg. ± st. dev. Embryos harvested: 263 ± 22 per 15 ml
[5]; cell line I, maltose 60 g/l
  Avg. Embryos: 290 per g tissue
  Total Avg. Potential Embryos: 702 per flask
[5]; [18]
  Avg. Embryos: 20 per ml
  Avg. ± st. dev. Embryos harvested: 351 ± 66 per 15 ml
[5]; line I, 40 g/l maltose, 70 ml medium
  average number of embryos produced per total volume of medium used (discarded and saved): 7.5 embryos per total ml media used
[5]; line I, across maltose levels from 10 to 60 g/l
  average number of embryos produced per ml of total media used: 8.3 per ml
[6]; cell line B, all liquid EDM treatments that contained maltose (10 to 60 g/l)
  production of fully developed embryos: Fully developed embryos were produced
[6]; cell line B, maltose 10 g/l
  Avg. Embryos: 189 per g tissue
  Total Avg. Potential Embryos: 464 per flask
[6]; [19]
  Avg. Embryos: 17 per ml
  Avg. ± st. dev. Embryos harvested: 232 ± 84 per 15 ml
[6]; cell line B, maltose 20 g/l
  Avg. Embryos: 218 per g tissue
  Total Avg. Potential Embryos: 526 per flask
[6]; [20]
  Avg. Embryos: 18 per ml
  Avg. ± st. dev. Embryos harvested: 263 ± 76 per 15 ml
[6]; cell line B, maltose 40 g/l
  Avg. Embryos: 165 per g tissue
  Total Avg. Potential Embryos: 422 per flask
[6]; [21]
  Avg. Embryos: 15 per ml
  Avg. ± st. dev. Embryos harvested: 211 ± 281 per 15 ml
[6]; cell line B, maltose 60 g/l
  Avg. Embryos: 89 per g tissue
  Total Avg. Potential Embryos: 240 per flask
[6]; [22]
  Avg. Embryos: 8 per ml
  Avg. ± st. dev. Embryos harvested: 120 ± 20 per 15 ml
[6]; line B, across maltose levels from 10 to 60 g/l
  average number of embryos produced per ml of total media used: 5.6 per ml

From patent US20130143256A1, “LIQUID-BASED METHOD FOR PRODUCING PLANT EMBRYOS” (ArborGen Inc., priority 2006, published 2013)
